Measured values as given in patent US5032398A, “Selective modification of the catalytic subunit of pertussis toxin” (priority 1986, dated 1991).
Several values for one entry are separate records, joined by “and”; a condition that tells them apart may be missing. Equal entries are not always repeated. Where two headings read alike, the source gives them in different places.

Legend:
Assay type in all cases: biochemical
pertussis toxin [1] = target: T1, pertussis toxin (Bordetella pertussis, UniProt P04977); test: Screen of compounds at 1 mM for stimulation of the NADase activity of the toxin (Example Three); settings: for Emax at 1000 µM / Fractional Activation: compound 1 mM, relative to 1 mM ATP, toxin preincubated with 20 mM DTT and 2% CHAPS, 3 h at 37° C, average ± half range of two trials; for Emax at 1000 µM: read-out: Fractional Activation
T1 sequence (P04977 35-269 limits assumed): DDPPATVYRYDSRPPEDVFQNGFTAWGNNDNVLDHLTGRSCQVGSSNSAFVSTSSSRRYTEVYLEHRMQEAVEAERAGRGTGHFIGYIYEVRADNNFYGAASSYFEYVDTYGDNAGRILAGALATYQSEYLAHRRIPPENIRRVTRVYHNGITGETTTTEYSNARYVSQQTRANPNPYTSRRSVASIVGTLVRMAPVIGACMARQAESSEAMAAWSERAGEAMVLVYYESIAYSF
Excerpt: The ADP-ribosylating activity of the pertussis toxin can be detected as a nicotinamide-adenine dinucleotide-glycohydrolase (NADase) activity, which can be conveniently assayed through the use of [nicotinamide-^14 C] or [nicotinamide-^3 H] NAD. NAD consists of ADP-ribose linked to nicotinimide, and thus the extent of the release of ADP-ribose from NAD is an indication of the ability of the toxin to cause ill effects. In conducting this assay of the hydrolysis of labelled NAD, ion-exchange column chromatography was employed to resolve the product from the substrate according to the method described by Moss et al., J. Biol. Chem. 258, 11879 (1983) which is incorporated herein by reference. However, several modifications to this method were employed. First, a QAE-Sephadex resin was employed, as was a [nicotinamide-^3 H] NAD. Specifically, a 2 ml QAE-Sephadex column was first washed with 10 ml 1NHCl, followed by 10 ml H2 O, 20 ml 0.5M Tris-HCl pH 7.0, and 40 ml H2 O. [^3 H] NAD was applied, and the column washed with 20 ml water to elute impurities. Purified [^3 H] NAD was eluted with 0.25M NaCl, and stored in small aliquots at -70° C. The purified [^3 H] NAD contributed 50 mM NaCl (final concentration) to the NADase assays.
Before the end of the reaction, 2 ml QAE-Sephadex columns were treated with 10 ml 0.1M imidazole-HCl pH 7.0 with 1.0M NaCl, followed by 40 ml water. The NADase reaction (in 100 μl) was terminated by adding 0.85 ml of ice-cold water, and the entire 0.95 ml was pipetted into a treated QAE column. The labelled nicotinamide was then eluted with 3 ml of water directly into a scintillation vial and counted. The absorbed labelled NAD was then eluted into radioactive waste with 10 ml 0.1M imidazole-HCl pH 7.0 with 1.0M NaCl, and the column stored partially immersed in a water bath until the next assay.
(§1) The pertussis toxin in the Examples comprised 50 μg of the toxin in a 500 μl solution of 10 mM sodium phosphate-50 mM sodium chloride-water solution having a pH of 7. The enzymatic activity was detected as the hydrolysis of nicotinamide labelled NAD and ion-exchange column chromatography to resolve the product from the substrate. Unless otherwise noted, the assay was initiated by adding 0.5 to 2.5 μg of the toxin to a reaction mixture for a final volume of 100 μl. The NADase reaction was terminated by adding 0.85 ml of ice-cold water. The entire 0.95 ml was then pipetted into a QAE-Sephadex column (chloride form) and the labelled nicotinamide eluted with 3 ml of water directly into a scintillation vial and counted. […] One unit of NADase activity is defined as 1 pmol NAD hydrolyzed per hour.
The various compounds were screened for the ability to stimulate the NADase activity of the toxin when present in a concentration of 1 mM. Before assay the toxin (1 μg per assay) was incubated at 37° C. for ten minutes with 20 mM DTT and 2 weight percent CHAPS. Assays were for three hours at 37° C., and fractional activation is defined as activity of the compound less the activity in the absence of an activator divided by the activity in the presence of 1 mM ATP less activity in the absence of the activator. The value given is the average plus one-half the range for two separate trials. In each trial, duplicates were measured. […] The results are shown in Table II, wherein P denotes phosphate.

pertussis toxin [2] = target: T1, pertussis toxin; test: Activation constants (A0.5) of polyphosphates by NADase assay; settings: for EC50 / fraction of the ATP effect: in the presence of a mild detergent
Protocol: In the description herein, activation constants for the substances may be expressed by a numerical value (A0.5) by using an NADase assay.
as §1

pertussis toxin [3] = target: T1, pertussis toxin; test: Inactivation of NADase activity by iodoacetate after different activator combinations (Example Seven); settings: additions to first incubation only (DTT 1 mM, ATP 1 mM, CHAPS 1%); second incubation none; read-out: Percent NADase activity relative to iced control
Protocol: Pertussis toxin was incubated first at 37° C. for fifteen minutes in […] buffer A (100 mM Tris-HCl, pH 8.0 with 1 mM NaEDTA). EDTA was added to chelate divalent cations, which may promote oxidation of free --SH groups. During this incubation, DTT and ATP were present in concentrations of 1 mM each, and CHAPS was present in a concentration of 1 weight percent. Labelled iodoacetate was then added ([…], 12.5 mM), and the tube incubated on ice for twenty hours. The sample was then mixed with sodium dodecylsulfate and β-mercaptoethanol, heated at 95° C. for one minute, and electrophoresed. After electrophoresis, the gel was fixed, treated with Fluorohance (Research Products International), dried and used to expose x-ray film.
(§2) Pertussis toxin was incubated at 37° C. for fifteen minutes as described in Example Six, and then a second incubation was begun by adding 10 μl buffer A with or without 12.5 mM iodoacetate, mixing the contents of the tube and lowering the temperature to 30° C. After fifteen minutes, the tubes were shifted to an ice bath for ten minutes. A third incubation was then begun by adding 10 μl buffer A containing 200 mM DTT to those tubes containing iodoacetate to scavenge the iodoacetate. To those tubes not containing iodoacetate during the second incubation, a mixture of 200 mM DTT and 12.5 mM iodoacetate in buffer A, previously incubated for an hour on ice, was added. The third incubation was continued for one hour on ice.
(§3) The contents of each tube were then assayed for NADase activity by adding 40 μl of a reaction mix consisting of buffer A containing carbon-14 labelled NAD (final concentration in the 100 μl final volume was 25 μM), and 50 mM sodium chloride. Different reaction mixtures with various additions were used, so that in all tubes the final concentration of ATP was 1 mM and CHAPS was 1 weight percent. The assay was conducted at 37° C. for sixty minutes, and the released labelled nicotinimide was isolated and counted. The iced controls were formed by incubating pertussis toxin (1 μg) on ice in 10 mM sodium phosphate (pH 7) and 50 mM sodium chloride during the first three incubations. […] The first three incubations were done under a nitrogen atmosphere using degassed conditions, and the second and third incubations were done under subdued light.

pertussis toxin [4] = target: T1, pertussis toxin; test: Inactivation of NADase activity by sulfhydryl reagents, 6 minutes or 18 hours at 0-4° (Example Eight); settings: first incubation: ATP, DTT, CHAPS
Protocol: as §2, §3
The procedure followed in Example Seven was repeated for this study, except that N-ethylmaleimide, chloroacetamide or chloroacetate were substituted for iodoacetate. After the 30° C. incubation, the tubes were either incubated for six minutes or eighteen hours at 0°-4° C. before the 10 μl of 200 mM DTT (with or without quenched reagent) was added. Those tubes receiving the DTT after six minutes were incubated for nineteen hours at 0°-4° C. prior to the NADase assay. Those receiving the DTT after eighteen hours were incubated with DTT for one hour, as in Example Seven. The tubes were then assayed for NADase activity at the same time.

[5] = FIGS. 1A and 1B, read-out: activation constants (A0.5)

Q: For `O=P(O)(O)OC(CO)CO` [2-glycerol-P], which Emax at 1000 µM (pertussis toxin [1]) is on record?
A: Its Emax at 1000 µM is -1 ± 3%.

Q: How did the “Stimulation (activation) of pertussis toxin, in words” value (shortened to “Stimulation (activation)”) (pertussis toxin [1]) turn out when `Nc1ncnc2c1ncn2[C@@H]1O[C@H](COP(=O)(O)OP(=O)(O)O)[C@@H](O)[C@H]1O` [ADP] was run?
A: Its value is “effective”.

Q: And the Emax at 1000 µM (pertussis toxin [1])?
A: Its Emax at 1000 µM is 107 ± 6%.

Q: What about the EC50 (pertussis toxin [2]; [5]) of the same compound?
A: The EC50 was 6 µM.

Q: With `Nc1ncnc2c1ncn2[C@@H]1O[C@H](COP(=O)(O)O)[C@@H](O)[C@H]1O` [AMP] as the compound, how does the Emax at 1000 µM (pertussis toxin [1]) read?
A: Its Emax at 1000 µM is 26 ± 9%.

Q: For `Nc1ncnc2c1ncn2[C@@H]1O[C@H](COP(=O)(O)OP(=O)(O)OP(=O)(O)O)[C@@H](O)[C@H]1O` [ATP], which “Stimulation (activation)” value (pertussis toxin [1]) is on record?
A: The value was “effective”.

Q: And the “NADase activity in the presence of 1 mM ATP” value (pertussis toxin [1]; two trials, without ATP 44 and 18)?
A: Its value is 111 units per microgram toxin and 97 units per microgram toxin.

Q: What about the EC50 (pertussis toxin [2]; [5]) of the same compound?
A: The EC50 was 0.2 µM.

Q: And the EC50 (pertussis toxin [2]; read-out: activation constant)?
A: Its EC50 is ~0.2 µM.

Q: And the remaining activity at 1000 µM (pertussis toxin [3])?
A: The remaining activity at 1000 µM was 13%.

Q: With `Nc1ccn([C@@H]2O[C@H](COP(=O)(O)OP(=O)(O)OP(=O)(O)O)[C@@H](O)[C@H]2O)c(=O)n1` [CTP] as the compound, how does the Emax at 1000 µM (pertussis toxin [1]) read?
A: The Emax at 1000 µM was 103 ± 9%.

Q: Which results are given for `Nc1nc2c(ncn2[C@@H]2O[C@H](COP(=O)(O)OP(=O)(O)OP(=O)(O)O)[C@@H](O)[C@H]2O)c(=O)[nH]1` [GTP]?
A: Emax at 1000 µM (pertussis toxin [1]): 87 ± 1%; EC50 (pertussis toxin [2]; [5]): 35 µM

Q: For `O=c1[nH]cnc2c1ncn2[C@@H]1O[C@H](COP(=O)(O)OP(=O)(O)OP(=O)(O)O)[C@@H](O)[C@H]1O` [ITP], which Emax at 1000 µM (pertussis toxin [1]) is on record?
A: The Emax at 1000 µM was 85 ± 1%.

Q: How did the “Stimulation (activation)” value (pertussis toxin [1]) turn out when `O=P(O)(O)O` [P, phosphate] was run?
A: Its value is “ineffective”.

Q: What about the “Fractional Activation” value (pertussis toxin [1]) of the same compound?
A: The value was 0.01 ± .01.

Q: How did the Emax at 1000 µM (pertussis toxin [1]) turn out when `O=c1ccn([C@@H]2O[C@H](COP(=O)(O)OP(=O)(O)OP(=O)(O)O)[C@@H](O)[C@H]2O)c(=O)[nH]1` [UTP] was run?
A: Its Emax at 1000 µM is 92 ± 3%.

Q: What about the EC50 (pertussis toxin [2]; [5]) of the same compound?
A: Its EC50 is 15 µM.

Q: With `Nc1ncnc2c1ncn2[C@@H]1O[C@H](CO)[C@@H](O)[C@H]1O` [adenosine] as the compound, how does the “Stimulation (activation)” value (pertussis toxin [1]) read?
A: The value was “ineffective”.

Q: What about the Emax at 1000 µM (pertussis toxin [1]) of the same compound?
A: The Emax at 1000 µM was 2 ± 2%.

Q: And the “Effect on the dose-response relationship of ATP or pyrophosphate” value (pertussis toxin [2]; adenosine 1 mM)?
A: The value was “failed to significantly alter”.

Q: How did the NADase activity (pertussis toxin [4]; 6 minutes at 0-4°) turn out when `NC(=O)CCl` [chloroacetamide] was run?
A: The NADase activity was 76 pmol per μg per hour.

Q: And the “percent of activity with no addition to second incubation” value (pertussis toxin [4]; 6 minutes at 0-4°)?
A: The value was 79%.

Q: What about the NADase activity (pertussis toxin [4]; 18 hours at 0-4°) of the same compound?
A: The NADase activity was 35 pmol per μg per hour.

Q: And the “percent of activity with no addition to second incubation” value (pertussis toxin [4]; 18 hours at 0-4°)?
A: Its value is 36%.

Q: Which results are given for `O=C(O)CCl` [chloroacetate]?
A: NADase activity (pertussis toxin [4]; 6 minutes at 0-4°): 86 pmol per μg per hour; percent of activity with no addition to second incubation (pertussis toxin [4]; 6 minutes at 0-4°): 91%; NADase activity (pertussis toxin [4]; 18 hours at 0-4°): 85 pmol per μg per hour; percent of activity with no addition to second incubation (pertussis toxin [4]; 18 hours at 0-4°): 87%

Q: `O=P(O)(O)OC[C@H]1OC(O)[C@H](O)[C@@H](O)[C@@H]1O` (stereo partly shown) [glucose-6-P, glucose 6-phosphate] was tested. Which “Stimulation (activation)” value (pertussis toxin [1]) did it give?
A: The value was “ineffective”.

Q: What about the Emax at 1000 µM (pertussis toxin [1]) of the same compound?
A: Its Emax at 1000 µM is -3 ± 2%.

Q: `Cc1ncc(COP(=O)(O)O)c(C=O)c1O` [pyridoxal-P] was tested. Which Emax at 1000 µM (pertussis toxin [1]) did it give?
A: The Emax at 1000 µM was 53 ± 6%.

Q: For `O=P(O)(O)OP(=O)(O)O` [pyro-P, pyrophosphate], which “Stimulation (activation)” value (pertussis toxin [1]) is on record?
A: Its value is “effective”.

Q: And the “Fractional Activation” value (pertussis toxin [1])?
A: Its value is 0.85 ± .11.

Q: And the “fraction of the ATP effect” value (pertussis toxin [2]; FIGS. 1A and 1B)?
A: The value was 0.7.

Q: For `NC(COP(=O)(O)O)C(=O)O` (stereo not shown) [serine-P], which Emax at 1000 µM (pertussis toxin [1]) is on record?
A: The Emax at 1000 µM was -4 ± 2%.

Q: Which results are given for `O=P(O)(O)OP(=O)(O)OP(=O)(O)OP(=O)(O)O` [tetrapoly-P, tetrapolyphosphate]?
A: Fractional Activation (pertussis toxin [1]): 0.92 ± .12; fraction of the ATP effect (pertussis toxin [2]; FIGS. 1A and 1B): 0.4; EC50 (pertussis toxin [2]; [5]): ≥ 170 µM

Q: How did the Emax at 1000 µM (pertussis toxin [1]) turn out when `CC(OP(=O)(O)O)C(N)C(=O)O` (stereo not shown) [threonine-P] was run?
A: Its Emax at 1000 µM is 1 ± 1%.

Q: Which “Fractional Activation” value (pertussis toxin [1]) does the source give for `O=P1([O-])OP(=O)([O-])OP(=O)([O-])O1.[Na+].[Na+].[Na+]` [trimeta-P, trimetaphosphate] here?
A: The value was 0.69 ± .22.

Q: And the “fraction of the ATP effect” value (pertussis toxin [2]; FIGS. 1A and 1B)?
A: Its value is 0.3.

Q: And the EC50 (pertussis toxin [2]; [5])?
A: The EC50 was ≥ 260 µM.

Q: How did the “Fractional Activation” value (pertussis toxin [1]) turn out when `O=P(O)(O)OP(=O)(O)OP(=O)(O)O` [tripoly-P, tripolyphosphate] was run?
A: The value was 0.98 ± .14.

Q: What about the “fraction of the ATP effect” value (pertussis toxin [2]; FIGS. 1A and 1B) of the same compound?
A: Its value is 0.6.

Q: Which Emax at 1000 µM (pertussis toxin [1]) does the source give for `NC(Cc1ccc(OP(=O)(O)O)cc1)C(=O)O` (stereo not shown) [tyrosine-P] here?
A: Its Emax at 1000 µM is 2 ± 2%.
